Patent publication US20110256510A1, “Use of Quaternary Ammonium Compounds to Inhibit Endogenous MMPs in Tooth Dentin” (priority 2009, published 2011)
Several values for one entry are separate records, joined by “and”; a condition that tells them apart may be missing. Equal values may be shown once. Where a name gives a salt, the structure may show the parent alone.

Legend:
[1] = test system: Clostridium histolyticum collagenase; experiment: Bacterial collagenase-based anti-MMP screening assay (SDS-PAGE gel analysis of undegraded Type I collagen); format: biochemical
Procedure: Bacterial collagenase-based anti-MMP screening assay: This assay employs purified Clostridium histolyticum collagenase (hereinafter “collagenase”) as the test enzyme for screening anti-MMP activity of compounds of interest. The screening assay involves incubating a constant concentration of collagenase with Type I soluble collagen and quantifying the amount of Type I collagen that remains undegraded in the presence of collagenase in the presence and absence of different test compounds. The basic assay composition comprises 50 μg of Type I collagen (e.g., human placental; Cat. # C7521; Sigma-Aldrich, St. Louis, […]., USA) and 50 μg of collagenase (e.g., Clostridium histolyticum E.C. 3.4.24.3; Cat. No. C7667 (1909 CDU/mg solid); Sigma-Aldrich, St. Louis, […]., USA) in a physiological buffer (pH 7.4) containing zinc ions, with a total reaction volume of 60 μl. […] The buffer composition used comprises […] Tris Base, 200 mM NaCl, 10 mM CaCl2, 0.05 mM ZnCl2, 3 mM NaN3 adjusted to […] with 1 N HCl.
Compounds of interest are added to the reaction system described above to assess their ability to inhibit collagenase degradation of collagen. As test compounds vary with respect to molecular weight and affinity for the dentin matrix, a range of concentrations (wt %) for each compound may be added to the basic reaction. Test compounds may be diluted approximately 1:5 in the final reaction volume by the subsequent sequential addition of solutions containing collagenase, collagen, and buffer.
The enzyme and the collagen are kept on ice. Twenty μL of enzyme (concentration of 5 μg protein/μL×20 μL=100 μg of enzyme) protein was incubated with 5 μL of loading buffer and 20 μL of inhibitor. The reaction was started by adding 20 μL of type I collagen (5 μg/μL×20=100 μg collagen). Thus, the total volume was 65 μL. The total protein was 100 μg enzyme protein plus 100 μg of collagen=200 μg protein in 65 μL. Thirty μL of that mixture was applied to the gel (30/65×200 μg protein=92.3 μg protein. Because the total volume was 65 μL and the inhibitor volume was 20 μL, the inhibitor was diluted 3.25-fold.
Following assembly, reactions are incubated for one hour at 37° C. The incubation reactions were terminated by submerging the tube in boiling water for 3 min. After termination, 30 μL of each reaction assay containing 92 μg of total protein is loaded onto a 7.5% SDS-PAGE polyacrylamide gel (BioRad, Hercules, Calif.) and subjected to electrophoresis at 200 V for 60 min. SDS-PAGE gels are routinely run with samples and various controls in the following order. The nature of the controls is further described below. Controls include collagenase alone (lane 1); collagen alone (lane 2); and collagen mixed with collagenase (lane 3). Assay reactions containing collagen mixed with collagenase plus various concentrations of the test collagenase inhibitor compounds are then loaded on the gel starting with lane 4 (loaded in order of decreasing compound concentration).
Following electrophoresis of the samples, the gel is stained in 0.25% Coomassie Brilliant Blue overnight and destained for 8 hrs in water prior to imaging. After destaining, the gels are digitally scanned to permit quantification of the amount of undegraded collagen present in each reaction, relative to the collagen standard in lane 2.
With regards to the controls, both Type I collagen and collagenase are proteins too large to migrate very far into the SDS-PAGE gel.

human recombinant MMP-9 = target: T1, human recombinant MMP-9 (Homo sapiens, UniProt P14780); experiment: Human MMP-9-based anti-MMP screening assay (Sensolyte Generic MMP colorimetric kit); format: biochemical; details: soluble human MMP-9
T1 construct: purchased AnaSpec, Inc. 72009
T1 sequence (P14780 94-707): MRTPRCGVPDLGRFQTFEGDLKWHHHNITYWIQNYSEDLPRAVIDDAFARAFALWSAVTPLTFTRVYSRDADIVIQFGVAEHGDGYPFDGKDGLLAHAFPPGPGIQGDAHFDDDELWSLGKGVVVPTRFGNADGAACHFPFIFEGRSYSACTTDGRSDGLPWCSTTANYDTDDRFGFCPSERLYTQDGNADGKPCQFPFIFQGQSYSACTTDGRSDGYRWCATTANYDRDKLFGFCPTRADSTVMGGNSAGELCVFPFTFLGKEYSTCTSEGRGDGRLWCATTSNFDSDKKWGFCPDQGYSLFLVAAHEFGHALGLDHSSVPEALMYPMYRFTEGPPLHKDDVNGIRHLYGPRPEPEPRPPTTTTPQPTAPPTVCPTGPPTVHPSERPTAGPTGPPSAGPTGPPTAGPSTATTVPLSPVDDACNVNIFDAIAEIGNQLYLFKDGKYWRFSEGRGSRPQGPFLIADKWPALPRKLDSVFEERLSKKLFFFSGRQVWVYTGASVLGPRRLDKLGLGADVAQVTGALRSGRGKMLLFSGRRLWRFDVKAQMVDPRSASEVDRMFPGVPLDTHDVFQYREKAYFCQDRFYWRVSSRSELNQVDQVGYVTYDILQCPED
Procedure: Human MMP-9-based anti-MMP screening assay: This assay employed purified human recombinant MMP-9 (Cat. No. 72009) and the Sensolyte Generic MMP colorimetric assay kit (Cat. No. 72095) from AnaSpec, Inc. (San Jose, Calif., USA) for screening anti-MMP activity of compounds of interest. This assay involves incubating a constant concentration of human MMP-9 with a proprietary thiopeptide substrate and quantifying the amount of substrate cleaved by the […] in the presence and absence of different test compounds. Cleavage of the proprietary thiopeptide substrate is quantitated by evaluating color production. Reactions may be assembled in a 96-well plate. After incubation for 30 minutes at 37° C., reactions are stopped and absorption measured at 412 nm using a 96-well plate reader synergy HT (BioTek Instruments, Inc., Winooski, Vt., USA).

C=CC(=O)OCC[N+](C)(C)C.[Cl-] [ATA, 2-Acryloxyethyltrimethylammonium chloride]
COLLAGENASE INHIBITION (%) ([1]; inhibitor 0.5 wt %): 57%
COLLAGENASE INHIBITION (%) ([1]; inhibitor 1 wt %): 55%
COLLAGENASE INHIBITION (%) ([1]; inhibitor 4 wt %): 44%
COLLAGENASE INHIBITION (%) ([1]; inhibitor 8 wt %): 49%
COLLAGENASE INHIBITION (%) ([1]; inhibitor 16 wt %): 73%
% MMP ACTIVITY INHIBITION (t = 30 minutes) (human recombinant MMP-9; inhibitor 10 wt %): 79%
% MMP ACTIVITY INHIBITION (t = 30 minutes) (human recombinant MMP-9; inhibitor 24 wt %): 82%

CC(=O)O.CC(=O)O.NC(=N\CCCCCC/N=C(N)/N=C(\N)Nc1ccc(Cl)cc1)/N=C(\N)Nc1ccc(Cl)cc1 [Chlorhexidine diacetate, chlorhexidine diacetate, reference compound]
COLLAGENASE INHIBITION (%) ([1]; inhibitor 0.02 wt %): 1%
COLLAGENASE INHIBITION (%) ([1]; inhibitor 0.02 wt %, listed as CHX): did not inhibit collagenase
COLLAGENASE INHIBITION (%) ([1]; inhibitor 0.2 wt %): 74%
COLLAGENASE INHIBITION (%) ([1]; inhibitor 0.2 wt %, listed as CHX): 69%

C=CC[N+](C)(C)CC=C.[Cl-] [DDAC, Diallyldimethylammonium chloride]
COLLAGENASE INHIBITION (%) ([1]; inhibitor 0.5 wt %): 50%
COLLAGENASE INHIBITION (%) ([1]; inhibitor 1 wt %): 56%
COLLAGENASE INHIBITION (%) ([1]; inhibitor 3 wt %): 59%
COLLAGENASE INHIBITION (%) ([1]; inhibitor 6 wt %): 66%
COLLAGENASE INHIBITION (%) ([1]; inhibitor 12 wt %): 73%
% MMP ACTIVITY INHIBITION (t = 30 minutes) (human recombinant MMP-9; inhibitor 10 wt %): 7%
% MMP ACTIVITY INHIBITION (t = 30 minutes) (human recombinant MMP-9; inhibitor 24 wt %): 16%

O=C(O)CN(CCN(CC(=O)O)CC(=O)O)CC(=O)O [EDTA, reference compound]
inhibited collagenase ([1]; inhibitor 10 mM (control lane)): 100% and 87%

C=C(C)C(=O)NCCC[N+](C)(C)C.[Cl-] [MAPTAC, [3-(Methacryloylamino)propyl]trimethylammonium chloride]
COLLAGENASE INHIBITION (%) ([1]; inhibitor 0.1 wt %): 41%
COLLAGENASE INHIBITION (%) ([1]; inhibitor 0.5 wt %): 39%
COLLAGENASE INHIBITION (%) ([1]; inhibitor 1 wt %): 53%
COLLAGENASE INHIBITION (%) ([1]; inhibitor 5 wt %): 53%
COLLAGENASE INHIBITION (%) ([1]; inhibitor 10 wt %): 55%
% MMP ACTIVITY INHIBITION (t = 30 minutes) (human recombinant MMP-9; inhibitor 10 wt %): 6%
% MMP ACTIVITY INHIBITION (t = 30 minutes) (human recombinant MMP-9; inhibitor 24 wt %): 17%

C=C(C)C(=O)OCC[N+](C)(C)C [MCMS, 2-[(Methacryloyloxy)ethyl]trimethylammonium methyl sulfate]
COLLAGENASE INHIBITION (%) ([1]; inhibitor 0.5 wt %): 73%
COLLAGENASE INHIBITION (%) ([1]; inhibitor 1 wt %): 70%
COLLAGENASE INHIBITION (%) ([1]; inhibitor 4 wt %): 65%
COLLAGENASE INHIBITION (%) ([1]; inhibitor 8 wt %): 62%
COLLAGENASE INHIBITION (%) ([1]; inhibitor 16 wt %): 87%
% MMP ACTIVITY INHIBITION (t = 30 minutes) (human recombinant MMP-9; inhibitor 10 wt %): 55%
% MMP ACTIVITY INHIBITION (t = 30 minutes) (human recombinant MMP-9; inhibitor 24 wt %): 84%

C=C(C)C(=O)OCC[N+](C)(C)C.[Cl-] [METMAC, [2-(Methacryloyloxy)ethyl]trimethylammonium chloride]
COLLAGENASE INHIBITION (%) ([1]; inhibitor 1.3 wt %): 39%
COLLAGENASE INHIBITION (%) ([1]; inhibitor 6.4 wt %): 56%
inhibited collagenase ([1]; inhibitor 12.85%): 69%
COLLAGENASE INHIBITION (%) ([1]; inhibitor 12.9 wt %): 69%
COLLAGENASE INHIBITION (%) ([1]; inhibitor 25.7 wt %): 100%
% MMP ACTIVITY INHIBITION (t = 30 minutes) (human recombinant MMP-9; inhibitor 10 wt %): 42%
% MMP ACTIVITY INHIBITION (t = 30 minutes) (human recombinant MMP-9; inhibitor 24 wt %): 71%

Cc1c(OCC(O)C[N+](C)(C)C)cc2c(=O)c3ccccc3sc2c1C.[Cl-] (stereo not drawn) [OTX, [3-(3,4-dimethyl-9-oxo-9H-thioxanthen-2-yloxy)-2-hydroxypropyl] trimethyl ammonium chloride]
COLLAGENASE INHIBITION (%) ([1]; inhibitor 0.1 wt %): 57%
COLLAGENASE INHIBITION (%) ([1]; inhibitor 0.2 wt %): 86%

CCCCCCCCCCCCCCCC[N+](C)(C)C.[Br-] [hexadecyl trimethyl ammonium bromide, reference compound]
inhibitory activity against collagenase ([1]; inhibitor 0.15% in ethanol): no inhibitory activity

benzalkonium chloride [reference compound]
COLLAGENASE INHIBITION (%) ([1]; inhibitor 10 wt %): no inhibitory activity

pyridinium tribromide [reference compound]
COLLAGENASE INHIBITION (%) ([1]; inhibitor 1 wt %): no inhibitory activity
